Like-named read-outs stand apart in the source and are kept apart here. Square brackets hold non-standard residues; d marks the D form. Peptide text beside a SMILES is read from it.
Tests used:
[1] = target: T1, human calcium-sensing receptor (CaSR) (Homo sapiens, UniProt P41180); assay: In vitro cell assay in HEK-293 expressing the human calcium-sensing receptor (IP1 production); format: cell-based
T1 construct: expressed in transfected cells; host or cells: HEK 293T cells, transiently transfected (lipofectamine 2000); in some cases HEK293 cells stably transfected
T1 sequence (P41180 20-1078): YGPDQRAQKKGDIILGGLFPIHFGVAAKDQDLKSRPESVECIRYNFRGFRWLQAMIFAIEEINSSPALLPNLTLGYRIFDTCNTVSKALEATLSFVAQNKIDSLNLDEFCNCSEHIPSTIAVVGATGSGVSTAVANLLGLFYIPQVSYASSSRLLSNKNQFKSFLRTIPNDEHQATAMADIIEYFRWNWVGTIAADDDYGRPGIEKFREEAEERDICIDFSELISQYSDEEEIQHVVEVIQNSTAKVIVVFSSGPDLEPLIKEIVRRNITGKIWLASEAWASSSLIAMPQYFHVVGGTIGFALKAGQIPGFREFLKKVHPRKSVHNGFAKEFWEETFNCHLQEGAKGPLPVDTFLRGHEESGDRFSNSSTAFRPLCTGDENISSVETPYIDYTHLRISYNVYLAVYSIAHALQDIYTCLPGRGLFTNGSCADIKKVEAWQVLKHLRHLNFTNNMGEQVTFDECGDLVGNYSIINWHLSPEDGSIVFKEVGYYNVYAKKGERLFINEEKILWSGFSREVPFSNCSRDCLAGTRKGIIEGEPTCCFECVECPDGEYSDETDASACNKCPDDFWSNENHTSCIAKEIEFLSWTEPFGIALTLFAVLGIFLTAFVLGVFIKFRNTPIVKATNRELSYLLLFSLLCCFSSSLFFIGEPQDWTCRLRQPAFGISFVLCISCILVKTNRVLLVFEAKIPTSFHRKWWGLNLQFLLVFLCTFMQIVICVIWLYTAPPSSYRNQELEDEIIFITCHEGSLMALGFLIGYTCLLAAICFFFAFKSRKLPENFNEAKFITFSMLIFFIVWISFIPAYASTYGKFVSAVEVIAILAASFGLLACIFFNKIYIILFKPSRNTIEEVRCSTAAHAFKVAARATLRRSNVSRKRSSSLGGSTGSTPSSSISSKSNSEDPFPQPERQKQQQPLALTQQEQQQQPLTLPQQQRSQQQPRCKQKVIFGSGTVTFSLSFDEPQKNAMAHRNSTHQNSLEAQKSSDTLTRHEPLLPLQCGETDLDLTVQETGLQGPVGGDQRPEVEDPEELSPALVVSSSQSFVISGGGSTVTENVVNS
Protocol: The activity of a variety of peptides and conjugates was tested against the human CaSR. These studies were conducted by measuring IP1 production in HEK293 cells that express the human CaSR. Each peptide was tested in eight different concentrations, in duplicates, to establish a dose response curve. Curve fitting was performed using GraphPad Prism. In Table 5, and throughout the specification, residues provided in capital letters are L-amino acids, while lower case letters indicate D-amino acids. “Ac” indicates an acetyl capping group, “NH2” indicates an amide capping group, “Ac-bAla” is an acetylated beta-alanine, “GSH” indicates reduced glutathione, “GS” indicates oxidized glutathione, “PEG” refers to polyethylene glycol, “PEG2” and “PEGS” refer to polyethylene glycol moieties of 2 kDa and 5 kDa, respectively, and “Mpa” refers to mercaptopropionic acid.
The day after, these cells were transfected with human CaSR receptor using lipofectamine 2000 transfection reagent 24 hrs post transfection, cells were seeded in 384 well plates at 8,000 cells/well. […] In some cases, EC50 values were determined by measuring inositol monophosphate production in the HEK293 cells, stably transfected with the human calcium-sensing receptor (see Table 1).
Cells were incubated with compounds at various concentrations (1 mM or 300 μM as the highest and further ½ log serial dilutions) at 37° C. for 1.5 hrs before reaction termination. […] In brief, incubation with the compound was terminated by sequentially adding D2 labeled-IP1 and cryptate-labeled anti-IP1 in lysis buffer and further incubating at room temperature for 60 minutes. […] Non-transfected 293 cells were used as negative control.
IP1 concentrations were calculated from standard curves (generated with Graph Pad Prism ver. 4) using known concentrations of IP1 standards.

[2] = system: plasma PTH; assay: In vivo PTH lowering after IV bolus in isoflurane-anesthetized normal Sprague Dawley rats; parameters: species or system rat; conditions: for duration of decreased PTH: 0.5 mg/kg IV bolus, FIG. 5; for duration of decreased PTH / 0.5 mg/kg IV bolus % PTH AUC of saline control: normal rats; for PTH-lowering activity in normal rats: 0.5 mg/kg single IV administration; for % PTH reduction of baseline at 1 hour post IV admin. of 0.5 mg/kg compound: isoflurane-anesthetized normal rats, 0.5 mg/kg IV
In short: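 Peptides were given as a 0.5 mg/kg IV bolus to normal Sprague Dawley rats kept under isoflurane throughout, with saline bolus controls.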

[3] = system: rat peritoneal mast cells; assay: In vitro histamine induction in rat peritoneal mast cells; format: cell-based
In short: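 Mast cells from peritoneal lavage of Sprague Dawley rats were incubated with compound at 10 μM for 15 min at 37 °C in HBSS + 25 mM HEPES pH 7.4. Supernatant histamine measured by EIA; response expressed as fold change versus pre-incubation levels.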

[4] = Table 1, IP1 in HEK293 cells expressing human CaSR, read-out: In vitro EC50
[5] = Table 5, IP1 production in HEK293 cells expressing human CaSR, eight concentrations in duplicate, read-out: EC50 in CaSR in vitro assay
[6] = Table 1, PTH at 1, 2, 3, 4 h, AUCcmpd treated/AUCsaline control*100

Row | Compound | EC50 [1, 4] [nM] | EC50 [1, 5] [nM] | duration of decreased PTH [2] | PTH-lowering activity in normal rats [2] | % PTH reduction of baseline at 1 hour post IV admin. of 0.5 mg/kg compound ([2]; Table 1) [%] | 0.5 mg/kg IV bolus % PTH AUC of saline control [2, 6] [%] | Histamine in vitro Fold change of non-treated at 10 uM [3] [fold] | 0.5 mg/kg IV bolus % PTH AUC of saline control ([2]; Table 6, AUC 1-4 h) [%]
1 | CC(=O)N[C@H](CS)C(=O)N[C@H](C)C(=O)N[C@H](CCCNC(=N)N)C(=O)N[C@H](CCCNC(=N)N)C(=O)N[C@H](CCCNC(=N)N)C(=O)N[C@H](CCCNC(=N)N)C(=O)N[C@H](CCCNC(=N)N)C(N)=O [SEQ ID NO: 8, Ac-carrrrr-NH2] (Ac-[dC][dA][dR][dR][dR][dR][dR]-NH2) | 1100 | 1100 | at least four hours | below the detection limit or essentially zero | 0 | 0 | 6.6 | –
2 | CC(=O)N[C@H](CS)C(=O)N[C@H](CCCNC(=N)N)C(=O)N[C@H](C)C(=O)N[C@H](CCCNC(=N)N)C(=O)N[C@H](CCCNC(=N)N)C(=O)N[C@H](CCCNC(=N)N)C(=O)N[C@H](CCCNC(=N)N)C(N)=O [SEQ ID NO: 9, Ac-crarrrr-NH2] (Ac-[dC][dR][dA][dR][dR][dR][dR]-NH2) | 1000 | 1000 | – | – | 0 | 7 | 6.8 | –
3 | CC(=O)N[C@H](CS)C(=O)N[C@H](CCCNC(=N)N)C(=O)N[C@H](CCCNC(=N)N)C(=O)N[C@H](C)C(=O)N[C@H](CCCNC(=N)N)C(=O)N[C@H](CCCNC(=N)N)C(=O)N[C@H](CCCNC(=N)N)C(N)=O [SEQ ID NO: 10, Ac-crrarrr-NH2] (Ac-[dC][dR][dR][dA][dR][dR][dR]-NH2) | 1100 | 1100 | at least four hours | below the detection limit or essentially zero | 0 | 0 | 5.3 | –
4 | CC(=O)N[C@H](CS)C(=O)N[C@H](CCCNC(=N)N)C(=O)N[C@H](CCCNC(=N)N)C(=O)N[C@H](CCCNC(=N)N)C(=O)N[C@H](C)C(=O)N[C@H](CCCNC(=N)N)C(=O)N[C@H](CCCNC(=N)N)C(N)=O [SEQ ID NO: 11, Ac-crrrarr-NH2] (Ac-[dC][dR][dR][dR][dA][dR][dR]-NH2) | 5900 | 5900 | – | – | 9 | 45 | 5.0 | –
5 | CC(=O)N[C@H](CS)C(=O)N[C@H](CCCNC(=N)N)C(=O)N[C@H](CCCNC(=N)N)C(=O)N[C@H](CCCNC(=N)N)C(=O)N[C@H](CCCNC(=N)N)C(=O)N[C@H](C)C(=O)N[C@H](CCCNC(=N)N)C(N)=O [SEQ ID NO: 12, Ac-crrrrar-NH2] (Ac-[dC][dR][dR][dR][dR][dA][dR]-NH2) | 450 | 450 | at least four hours | – | 3 | 3 | 5.0 | –
6 | CC(=O)N[C@H](CS)C(=O)N[C@H](CCCNC(=N)N)C(=O)N[C@H](CCCNC(=N)N)C(=O)N[C@H](CCCNC(=N)N)C(=O)N[C@H](CCCNC(=N)N)C(=O)N[C@H](CCCNC(=N)N)C(=O)N[C@H](C)C(N)=O [SEQ ID NO: 13, Ac-crrrrra-NH2] (Ac-[dC][dR][dR][dR][dR][dR][dA]-NH2) | 1100 | 1100 | – | – | 4 | 28 | 4.1 | –
7 | CC(=O)N[C@H](CS)C(=O)N[C@H](C)C(=O)N[C@H](CCCNC(=N)N)C(=O)N[C@H](CCCNC(=N)N)C(=O)N[C@H](CCCNC(=N)N)C(=O)N[C@H](CCC(=O)O)C(=O)N[C@H](CCCNC(=N)N)C(N)=O [SEQ ID NO: 68, Ac-carrrer-NH2] (Ac-[dC][dA][dR][dR][dR][dE][dR]-NH2) | – | 62000 | – | – | – | – | 1.3 | 81
8 | CC(=O)N[C@H](CS)C(=O)N[C@H](C)C(=O)N[C@H](CCCCN)C(=O)N[C@H](CCCNC(=N)N)C(=O)N[C@H](CCCNC(=N)N)C(=O)N[C@H](C)C(=O)N[C@H](CCCNC(=N)N)C(N)=O [SEQ ID NO: 72, Ac-cakrrar-NH2] (Ac-[dC][dA][dK][dR][dR][dA][dR]-NH2) | – | 35000 | – | – | – | – | 1.1 | –
9 | CC(=O)N[C@H](CS)C(=O)N[C@H](C)C(=O)N[C@H](CCCNC(=N)N)C(=O)N[C@H](CCCCN)C(=O)N[C@H](CCCNC(=N)N)C(=O)N[C@H](C)C(=O)N[C@H](CCCNC(=N)N)C(N)=O [SEQ ID NO: 73, Ac-carkrar-NH2] (Ac-[dC][dA][dR][dK][dR][dA][dR]-NH2) | – | 31000 | – | – | – | – | 1.4 | –
